ChEMBL document CHEMBL1150270, “Effect of the major glycosides of Harpagophytum procumbens (Devil's Claw) on epidermal cyclooxygenase-2 (COX-2) in vitro” (2008)
The source made the active and inactive calls. No cut-off for these calls is given here.

Tests used:
Assay type in all cases: functional
Sus scrofa [1] = organism: Sus scrofa; assay: Reduction of COX2 expression in pig skin at 500 uM by Western blotting
Sus scrofa [2] = organism: Sus scrofa; assay: Suppression of COX2 expression in pig skin by immunostaining after 6 hrs
Sus scrofa [3] = organism: Sus scrofa; assay: Inhibition of COX2 synthesis in pig skin
Sus scrofa [4] = organism: Sus scrofa; assay: Increase in COX2 expression in pig skin at 500 uM by Western blotting

C[C@]1(OC(=O)/C=C/c2ccc(O)cc2)C[C@@H](O)[C@]2(O)C=CO[C@@H](O[C@@H]3O[C@H](CO)[C@@H](O)[C@H](O)[C@H]3O)[C@@H]21
Activity (Sus scrofa [1]): Active | Activity (Sus scrofa [2]): Active | inhibition (INH) (Sus scrofa [3]): <50%

C[C@]1(O)C[C@@H](O)[C@]2(O)C=CO[C@@H](O[C@H]3O[C@H](CO)[C@@H](O)[C@H](O)[C@H]3O)[C@@H]21
Activity (Sus scrofa [4]): Active

C[C@@H]1O[C@@H](O[C@@H]2[C@@H](O)[C@H](OCCc3ccc(O)c(O)c3)O[C@H](CO)[C@H]2OC(=O)/C=C/c2ccc(O)c(O)c2)[C@H](O)[C@H](O)[C@H]1O [ACETOSIDE]
Activity (Sus scrofa [2]): Active | inhibition (INH) (Sus scrofa [3]): <50%

C[C@]1(OC(=O)/C=C/c2ccccc2)C[C@@H](O)[C@]2(O)C=CO[C@@H](O[C@@H]3O[C@H](CO)[C@@H](O)[C@H](O)[C@H]3O)[C@@H]21 [HARPAGOSIDE]
Activity (Sus scrofa [2]): Active | inhibition (INH) (Sus scrofa [3]): <50%

CC(C)Cc1ccc(C(C)C(=O)O)cc1 (stereo not given) [IBUPROFEN]
Activity (Sus scrofa [2]): Active | inhibition (INH) (Sus scrofa [3]): <50%
